Among the data in ChEMBL document CHEMBL5338805, “Discovery of the First Subnanomolar PPARα/δ Dual Agonist for the Treatment of Cholestatic Liver Diseases” (J Med Chem, 2023) are EC50 values, retold here.

Type in all cases: cell-based
Assay [1] addresses T1, Peroxisome proliferator-activated receptor alpha (Homo sapiens, UniProt Q07869).
T1 sequence (Q07869 whole entry): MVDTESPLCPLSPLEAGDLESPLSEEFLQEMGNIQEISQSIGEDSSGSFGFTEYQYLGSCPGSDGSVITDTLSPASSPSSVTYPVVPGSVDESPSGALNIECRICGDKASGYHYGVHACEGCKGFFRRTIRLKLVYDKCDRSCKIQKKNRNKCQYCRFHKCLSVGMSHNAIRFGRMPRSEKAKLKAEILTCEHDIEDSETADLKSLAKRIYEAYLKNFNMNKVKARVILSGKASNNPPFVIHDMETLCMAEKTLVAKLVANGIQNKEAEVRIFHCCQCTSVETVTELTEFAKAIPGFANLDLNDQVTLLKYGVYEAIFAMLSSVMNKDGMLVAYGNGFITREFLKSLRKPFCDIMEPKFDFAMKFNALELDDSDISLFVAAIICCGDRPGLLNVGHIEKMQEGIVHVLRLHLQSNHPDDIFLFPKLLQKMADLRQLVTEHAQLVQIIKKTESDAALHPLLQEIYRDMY
The assay is described as follows: Agonist activity at human PPARalpha transfected in african green monkey COS7 cells assessed transactivation incubated for 16 hrs by luciferase assay.

Assay [2] has as its target T2, Peroxisome proliferator-activated receptor gamma (Homo sapiens, UniProt P37231).
T2 sequence (P37231 whole entry): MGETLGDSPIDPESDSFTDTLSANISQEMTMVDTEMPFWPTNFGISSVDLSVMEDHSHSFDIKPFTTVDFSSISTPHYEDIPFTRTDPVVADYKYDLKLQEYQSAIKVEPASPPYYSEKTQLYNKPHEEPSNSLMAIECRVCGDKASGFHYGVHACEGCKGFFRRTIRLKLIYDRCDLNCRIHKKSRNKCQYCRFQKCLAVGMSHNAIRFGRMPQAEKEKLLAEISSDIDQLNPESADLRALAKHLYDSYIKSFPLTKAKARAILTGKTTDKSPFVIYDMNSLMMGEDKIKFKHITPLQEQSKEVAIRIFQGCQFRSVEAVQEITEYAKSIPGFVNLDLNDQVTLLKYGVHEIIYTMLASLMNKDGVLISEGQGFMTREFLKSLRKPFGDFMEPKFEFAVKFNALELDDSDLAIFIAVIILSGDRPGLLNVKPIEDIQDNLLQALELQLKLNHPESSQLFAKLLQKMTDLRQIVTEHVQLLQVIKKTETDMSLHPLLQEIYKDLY
The assay is described as follows: Agonist activity at human PPARgamma transfected in african green monkey COS7 cells assessed transactivation incubated for 16 hrs by luciferase assay.

For assay [3], the target named is Peroxisome proliferator-activated receptor delta (Homo sapiens, UniProt Q03181). The assay is described as follows: Agonist activity at human PPARdelta transfected in african green monkey COS7 cells assessed transactivation incubated for 16 hrs by luciferase assay.
Chain of Peroxisome proliferator-activated receptor delta (Q03181 whole entry): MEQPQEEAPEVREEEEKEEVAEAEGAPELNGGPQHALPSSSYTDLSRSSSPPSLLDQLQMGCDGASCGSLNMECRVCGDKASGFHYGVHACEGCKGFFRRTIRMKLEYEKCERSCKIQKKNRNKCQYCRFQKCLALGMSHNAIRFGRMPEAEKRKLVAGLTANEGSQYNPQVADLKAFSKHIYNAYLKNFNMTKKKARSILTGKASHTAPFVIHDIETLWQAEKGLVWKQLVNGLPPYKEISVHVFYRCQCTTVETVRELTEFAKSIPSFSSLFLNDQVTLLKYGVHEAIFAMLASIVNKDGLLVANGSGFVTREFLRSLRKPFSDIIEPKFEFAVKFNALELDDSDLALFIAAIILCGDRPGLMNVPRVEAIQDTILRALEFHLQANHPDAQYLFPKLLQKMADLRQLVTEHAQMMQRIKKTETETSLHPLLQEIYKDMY

In assay [1], `Cc1cc(Cn2ncn(-c3ccc(OC(F)(F)F)cc3)c2=O)cc(C)c1OC(C)(C)C(=O)O` showed a half-maximal effective concentration (EC50) of 7.4 nM.

Turning to `Cc1cc(CN2C(=O)CN(c3ccccc3C(F)(F)F)C2=O)cc(C)c1OC(C)(C)C(=O)O`, the EC50 in assay [1] and in assay [2] was above 5000 nM throughout.

Compound `Cc1cc(CCN2C(=O)CN(c3ccc(C(F)(F)F)cc3)C2=O)cc(C)c1OC(C)(C)C(=O)O` registered an EC50 in assay [2] of 277 nM.

`CSc1ccc(N2CC(=O)N(Cc3cc(C)c(OC(C)(C)C(=O)O)c(C)c3)C2=O)cc1`: the EC50 turned out to be 2.7 nM in assay [1], 8.2 nM in assay [3] and 1170 nM in assay [2].

In the case of `Cc1cc(CN2C(=O)CN(c3ccc(C(F)(F)F)cc3)C2=O)cc(C)c1OC(C)C(=O)O` (stereo unspecified), the figures for the concentration giving a half-maximal response (EC50) in assay [3] and in assay [2] were 8.4 nM and above 5000 nM, respectively.

`Cc1cc(N2C(=O)CN(c3ccc(C(F)(F)F)cc3)C2=O)cc(C)c1OC(C)(C)C(=O)O` had an EC50 in assay [2] above 5000 nM.

As for `Cc1cc(CN2C(=O)CN(c3ccc(OC(F)(F)F)cc3)C2=O)cc(C)c1OC(C)(C)C(=O)O`, in assay [2], the concentration for a half-maximal effect (EC50) was determined as 1390 nM.

As a reminder, the EC50 is the concentration giving half of the maximal effect.
